Here are results for 4 compounds from article PMC4770306, “Structure-Based Identification of Inhibitory Fragments Targeting the p300/CBP-Associated Factor Bromodomain” (Journal of Medicinal Chemistry, 2016).

The target in experiment [1] is T1, PCAF bromodomain (Homo sapiens, UniProt Q92831).
T1 construct: The PCAF bromodomain (aa 715–831) containing an N-terminal His6-tag was recombinantly expressed in Escherichia coli Rosetta; His6 (N, cleaved yes); made in house; host or cells: Escherichia coli Rosetta
T1 sequence (Q92831 715-831): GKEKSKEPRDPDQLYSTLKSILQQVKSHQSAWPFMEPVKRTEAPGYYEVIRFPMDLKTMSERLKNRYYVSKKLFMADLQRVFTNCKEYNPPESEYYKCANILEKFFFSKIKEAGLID
In words: Isothermal titration calorimetry (ITC) with PCAF. The experiment is classed as binding. The settings on record: from ITC Kd. For orientation: ITC needs no label: the signal is the heat of the interaction.

Experiment [2] addresses T2, PCAF bromodomain (Homo sapiens, UniProt Q92831).
T2 construct: made in house
T2 sequence (Q92831 723-827 limits assumed): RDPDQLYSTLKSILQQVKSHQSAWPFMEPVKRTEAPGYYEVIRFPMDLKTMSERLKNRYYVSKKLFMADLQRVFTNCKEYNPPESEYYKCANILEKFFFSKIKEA
As to the kind of experiment: SPR (Biacore) of TINS fragment hits on immobilized PCAF. The experiment is classed as binding. The settings on record: for Kd: SPR, 20 °C, six concentrations, aqueous buffer without DMSO; for LE: from SPR KD and heavy atom count. On the procedure: Recombinant PCAF was biotinylated on the N-terminal AVI tag in vivo. Purified, biotinylated PCAF was captured onto a NeutraAvidin-coated CM5 sensor chip surface in 20 mM sodium phosphate pH7.5, 150 mM NaCl, 2 mM DTT, and 0.05% P20 Tween. This buffer was subsequently used for all studies. The immobilization level was 10150 RU. All SPR experiments were performed using a Biacore T200 instrument at 20 °C. Fragment hits from TINS were directly solubilized in the running buffer. Each fragment was titrated at six different concentrations for KD determination. An acetyl-Lys 16 peptide derived from H4 was used to monitor the ligand binding capacity of the immobilized PCAF bromodomain at regular intervals.
(In SPR one partner is held on a chip, and binding of the other changes the refractive index at the surface.)

Turning to `CNC(=O)c1cc(OCC(=O)Nc2ccccc2)ccc1OC1CCOCC1` [compound 14, N-methyl-5-(2-oxo-2-(phenylamino)ethoxy)-2-((tetrahydro-2H-pyran-4-yl)oxy)benzamide], the “ligand efficiency (LE)” value at PCAF bromodomain [1] was 0.24. For orientation: Kd means the concentration at which binding is half-saturated. Turning to `NC1CCN(C(=O)C2CC2)CC1` [compound 10], on PCAF bromodomain [2], binding was put at a Kd of 6910 µM and the LE was determined as 0.24. The like results for `Cc1c(N)c(=O)n(-c2ccccc2)n1C` [compound 9] were, in that order, 2680 µM and 0.23. At PCAF bromodomain [2], `Cc1nn(CCO)c2c1C(=O)CCC2` [compound 11] yielded a Kd of 488 µM and an LE of 0.32.
